Reference: article PMC9516332 (Frontiers in Oncology, 2022)
pIC50: −log10 of the molar value. Where two headings read alike, the source gives them in different places.

How the values were obtained:
[1] = biological target: T1, panel of 255 wild-type kinases (Homo sapiens, UniProt Q8IW41); assay: Kinase panel profiling at 1 µmol/L (MSA or IMAP), percentage inhibition; format: biochemical; conditions: MAPKAPK5; 1 µmol/L single concentration; read-out: %-inhibition, MAPKAPK5
T1 sequence (Q8IW41 1-473): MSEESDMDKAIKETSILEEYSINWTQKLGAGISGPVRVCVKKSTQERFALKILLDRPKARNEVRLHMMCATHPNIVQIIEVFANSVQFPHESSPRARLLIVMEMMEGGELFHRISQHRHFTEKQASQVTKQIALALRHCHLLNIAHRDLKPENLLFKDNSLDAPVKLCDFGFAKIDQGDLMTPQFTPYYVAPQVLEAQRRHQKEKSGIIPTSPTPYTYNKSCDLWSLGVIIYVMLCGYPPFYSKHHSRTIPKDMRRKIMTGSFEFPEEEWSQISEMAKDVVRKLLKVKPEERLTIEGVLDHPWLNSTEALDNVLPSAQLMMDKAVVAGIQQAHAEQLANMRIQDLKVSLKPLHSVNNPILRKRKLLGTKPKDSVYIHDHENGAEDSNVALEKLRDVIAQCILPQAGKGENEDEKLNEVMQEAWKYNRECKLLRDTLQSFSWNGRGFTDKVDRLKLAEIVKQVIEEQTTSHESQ

[2] = biological target: panel of 255 wild-type kinases (Homo sapiens, UniProt P45983); assay: as above; format: biochemical; conditions: kinase JNK1; 1 µmol/L single concentration; read-out: %-inhibition at 1 µmol/L, JNK1
134 cancer cell lines = assay: Cell viability assay (ATPlite, 72 hours), IC50 on cancer cell line panel

With `CCN1C(=O)N(c2c(F)c(OC)cc(OC)c2F)Cc2cnc3[nH]c(CN4CCOCC4)cc3c21` [pemigatinib] the inhibition at 1 µM [1] was 2.28%, the inhibition at 1 µM [2] was -4.3% and the pIC50 (134 cancer cell lines; HEC-6, read-out: IC50 in cell proliferation assay) was 5.60. The pIC50 (134 cancer cell lines; Homo sapiens, 769-P, read-out: IC50 in cell proliferation assay) was 5.60, the pIC50 (134 cancer cell lines; Homo sapiens, 786-0, read-out: IC50 in cell proliferation assay) was 5.57 and the pIC50 (134 cancer cell lines; Homo sapiens, A 172, read-out: IC50 in cell proliferation assay) was 7.54. For the same molecule, the pIC50 (134 cancer cell lines; Homo sapiens, A204, read-out: IC50 in cell proliferation assay) was 7.54, the pIC50 (134 cancer cell lines; Homo sapiens, A498, read-out: IC50 in cell proliferation assay) was 5.95 and the pIC50 (134 cancer cell lines; Homo sapiens, A549, read-out: IC50 in cell proliferation assay) was 5.40. For the same molecule, the pIC50 (134 cancer cell lines; Homo sapiens, A704, read-out: IC50 in cell proliferation assay) was 5.89, the pIC50 (134 cancer cell lines; Homo sapiens, A-375, read-out: IC50 in cell proliferation assay) was 5.52 and the pIC50 (134 cancer cell lines; Homo sapiens, A-427, read-out: IC50 in cell proliferation assay) was 8.84. It also gave a pIC50 (134 cancer cell lines; Homo sapiens, ACHN, read-out: IC50 in cell proliferation assay) of 6.00, a pIC50 (134 cancer cell lines; Homo sapiens, AN3-CA, read-out: IC50 in cell proliferation assay) of 7.66 and a pIC50 (134 cancer cell lines; Homo sapiens, ASPC1, read-out: IC50 in cell proliferation assay) of 5.50. For the same molecule, the pIC50 (134 cancer cell lines; Homo sapiens, AU565, read-out: IC50 in cell proliferation assay) was 5.49, the pIC50 (134 cancer cell lines; Homo sapiens, BT-20, read-out: IC50 in cell proliferation assay) was 5.55 and the pIC50 (134 cancer cell lines; Homo sapiens, BT-474, read-out: IC50 in cell proliferation assay) was < 4.50. For the same molecule, the pIC50 (134 cancer cell lines; Homo sapiens, BT-549, read-out: IC50 in cell proliferation assay) was 7.77, the pIC50 (134 cancer cell lines; Homo sapiens, BXPC-3, read-out: IC50 in cell proliferation assay) was 5.92 and the pIC50 (134 cancer cell lines; Homo sapiens, C-33-A, read-out: IC50 in cell proliferation assay) was 5.57. For the same molecule, the pIC50 (134 cancer cell lines; Homo sapiens, CAL-27, read-out: IC50 in cell proliferation assay) was 5.58, the pIC50 (134 cancer cell lines; Homo sapiens, CCF-STTG1, read-out: IC50 in cell proliferation assay) was < 4.50 and the pIC50 (134 cancer cell lines; Homo sapiens, CCRF-CEM, read-out: IC50 in cell proliferation assay) was 5.44. It also gave a pIC50 (134 cancer cell lines; Homo sapiens, COLO 205, read-out: IC50 in cell proliferation assay) of 5.53, a pIC50 (134 cancer cell lines; Homo sapiens, COLO-829, read-out: IC50 in cell proliferation assay) of 5.49 and a pIC50 (134 cancer cell lines; Homo sapiens, DLD-1, read-out: IC50 in cell proliferation assay) of 5.64. For the same molecule, the pIC50 (134 cancer cell lines; Homo sapiens, DU-145, read-out: IC50 in cell proliferation assay) was 5.79, the pIC50 (134 cancer cell lines; Homo sapiens, DU-4475, read-out: IC50 in cell proliferation assay) was 5.23 and the pIC50 (134 cancer cell lines; Homo sapiens, Daoy, read-out: IC50 in cell proliferation assay) was 5.85. For the same molecule, the pIC50 (134 cancer cell lines; Homo sapiens, DoTc2-4510, read-out: IC50 in cell proliferation assay) was 5.50, the pIC50 (134 cancer cell lines; Homo sapiens, EOL1, read-out: IC50 in cell proliferation assay) was 5.96 and the pIC50 (134 cancer cell lines; Homo sapiens, FaDu, read-out: IC50 in cell proliferation assay) was 5.59. It also gave a pIC50 (134 cancer cell lines; Homo sapiens, G-361, read-out: IC50 in cell proliferation assay) of 5.59, a pIC50 (134 cancer cell lines; Homo sapiens, HCC827, read-out: IC50 in cell proliferation assay) of 5.49 and a pIC50 (134 cancer cell lines; Homo sapiens, HCC4006, read-out: IC50 in cell proliferation assay) of 5.58. For the same molecule, the pIC50 (134 cancer cell lines; Homo sapiens, HCT-15, read-out: IC50 in cell proliferation assay) was 5.55, the pIC50 (134 cancer cell lines; Homo sapiens, HCT-116, read-out: IC50 in cell proliferation assay) was 5.62 and the pIC50 (134 cancer cell lines; Homo sapiens, HEC-1, read-out: IC50 in cell proliferation assay) was 5.63. The pIC50 (134 cancer cell lines; Homo sapiens, HEC-1B, read-out: IC50 in cell proliferation assay) was 5.56, the pIC50 (134 cancer cell lines; Homo sapiens, HL-60, read-out: IC50 in cell proliferation assay) was 5.61 and the pIC50 (134 cancer cell lines; Homo sapiens, HT, read-out: IC50 in cell proliferation assay) was < 4.50. For the same molecule, the pIC50 (134 cancer cell lines; Homo sapiens, HT-1080, read-out: IC50 in cell proliferation assay) was 5.97, the pIC50 (134 cancer cell lines; Homo sapiens, Hs746T, read-out: IC50 in cell proliferation assay) was 5.74 and the pIC50 (134 cancer cell lines; Homo sapiens, Hs-578T, read-out: IC50 in cell proliferation assay) was 5.42. For the same molecule, the pIC50 (134 cancer cell lines; Homo sapiens, HuTu80, read-out: IC50 in cell proliferation assay) was 8.45, the pIC50 (134 cancer cell lines; Homo sapiens, J82, read-out: IC50 in cell proliferation assay) was 5.95 and the pIC50 (134 cancer cell lines; Homo sapiens, Jurkat E6.1, read-out: IC50 in cell proliferation assay) was 5.54. It also gave a pIC50 (134 cancer cell lines; Homo sapiens, K562, read-out: IC50 in cell proliferation assay) of 5.42, a pIC50 (134 cancer cell lines; Homo sapiens, KATO III, read-out: IC50 in cell proliferation assay) of 8.75 and a pIC50 (134 cancer cell lines; Homo sapiens, KG-1, read-out: IC50 in cell proliferation assay) of 8.97. The pIC50 (134 cancer cell lines; Homo sapiens, KLE, read-out: IC50 in cell proliferation assay) was 5.74, the pIC50 (134 cancer cell lines; Homo sapiens, KMS-11, read-out: IC50 in cell proliferation assay) was 7.80 and the pIC50 (134 cancer cell lines; Homo sapiens, KU812, read-out: IC50 in cell proliferation assay) was 5.33. For the same molecule, the pIC50 (134 cancer cell lines; Homo sapiens, Kasumi 1, read-out: IC50 in cell proliferation assay) was 5.89, the pIC50 (134 cancer cell lines; Homo sapiens, LC-2-ad, read-out: IC50 in cell proliferation assay) was 5.48 and the pIC50 (134 cancer cell lines; Homo sapiens, LNCaP-Clone-FGC, read-out: IC50 in cell proliferation assay) was 5.51. It also gave a pIC50 (134 cancer cell lines; Homo sapiens, LS174T, read-out: IC50 in cell proliferation assay) of 5.43 and a pIC50 (134 cancer cell lines; Homo sapiens, LS-411N, read-out: IC50 in cell proliferation assay) of 5.23.
